Laboratory results taken from patent US20050267195A1, “Drug composition for blood sugar control” (priority 2002, published 2005).
Where a name gives a salt, the structure may show the parent alone.

Assays:
[1] = tested on: type II diabetic patients; assay: Clinical study in type II diabetic patients; assay type: in vivo, human
Method: Using the pharmaceutical composition described in Example 1, a clinical study was conducted in type II diabetic patients under the following conditions.
Test drug and Mode of administration: Every patient orally administered either of a combination selected from the following combination groups (one tablet from each) three times a day just before meals (within 5 minutes before starting meal): • The present invention group: (1)+(4) • Positive control group: (2)+(3) • Positive control group: (3)+(4) • (1) a tablet comprising 10 mg of mitiglinide calcium salt hydrate; • (2) a tablet comprising 0.2 mg of voglibose (chemical name: (+)-1L-[1(OH),2,4,5/3]-5-[2-hydroxy-1-(hydroxymethyl)ethyl]amino-1-C-(hydroxymethyl)-1,2,3,4-cyclohexaneterol); • (3) a placebo tablet of mitiglinide calcium salt hydrate not containing any active ingredient; and • (4) a placebo tablet of voglibose not containing any active ingredient. • Treatment period: 12 weeks • Observation item: The following items were measured before administration, at a certain fixed time after the start of administration and at the completion of administration, and their changes were calculated, or the frequency of adverse drug reactions was calculated, and then evaluated.

healthy male adults = assay: Clinical study on administration timing; assay type: in vivo, human
Method: Administration timing before taking a meal was evaluated in healthy male adults. Used test drugs were a tablet comprising 10 mg of mitiglinide calcium salt hydrate and a placebo tablet. The tablet comprising 10 mg of mitiglinide calcium salt hydrate was administered at 0.5 min, 5 min, 10 min or 30 min before starting meal (Positive group), while the placebo tablet was administered at 0.5 min before starting meal. After administration, blood glucose levels were measured at starting meal and evaluated.

[2] = in comparison with voglibose and placebo

SMILES	effect on HbA1C value (in words) ([1]; after 4 weeks after the start of administration, in comparison with voglibose and placebo)	frequencies of hypoglycemic symptoms and gastrointestinal disorders (in words) ([1]; human, in vivo)	effect on 1 hour and 2 hour values of postprandial plasma glucose (PPG) (in words) [1, 2]	effect on early morning fasting plasma glucose (FPG) (in words) [1, 2]	blood glucose level at starting meal (in words) (healthy male adults; administered at 30 minutes before starting meal)	blood glucose level at starting meal (in words) (healthy male adults; administrated within 10 minutes before starting meal)	Change in 2 hour value of PPG, mean value ([1]; final evaluation, three times a day just before meals, 12 weeks) [mg/dL]	effect on HbA1C value (in words) ([1]; in comparison with placebo)
O=C(O)[C@H](CC(=O)N1C[C@H]2CCCC[C@H]2C1)Cc1ccccc1 [mitiglinide calcium salt hydrate, (+)-monocalcium bis[(2S,3a,7a-cis)-α-benzylhexahydro-γ-oxo-2-isoindolinebutyrate] dihydrate]	significantly lowered HbA1C value	decreased the frequencies of hypoglycemic symptoms and gastrointestinal disorders	significantly lowered 1 hour and 2 hour values of postprandial plasma glucose (PPG)	significantly lowered early morning fasting plasma glucose (FPG)	notably declined	able to maintain good blood glucose level		
OCC(CO)N[C@H]1C[C@](O)(CO)[C@@H](O)[C@H](O)[C@H]1O [voglibose, (+)-1L-[1(OH),2,4,5/3]-5-[2-hydroxy-1-(hydroxymethyl)ethyl]amino-1-C-(hydroxymethyl)-1,2,3,4-cyclohexaneterol, reference compound]							-5.1	significantly lowered HbA1C value
